Measured values published in patent US9708628B2, “Cationic lipid having improved intracellular kinetics” (NOF CORPORATION, priority 2011, dated 2017).

Assays:
Assay type in all cases: cell-based
[1] = tested on: HT1080 cells; assay: Intracellular uptake amount of MEND (NBD-DOPE labeled lipid, FACS); conditions: NBD-DOPE label, lipid 27.5 nmol/well, 1 hr, DMEM (FBS+)
Method: Using B-2 (Example 1), B-2-1 (Comparative Example 1), and DODAP (Comparative Example 2) as cationic lipids, MENDs having a composition of cationic lipid:SOPE:Chol=3:4:3 were prepared by the method described in [Experimental Example 1] (2). For the preparation, PEG2000DSG was used as PEG lipid, and MEND solutions corresponding to 0.55 mM of the lipid concentration were prepared. For cationic MEND, lipids having a composition of DOTAP (Comparative Example 3):DOPE:Chol:=3:4:3 were used, and the cationic MEND was prepared according to the method described in [Experimental Example 1] (3). The lipids of various MENDs were labeled with fluorescence according to the method described in [Experimental Example 1] (5).
HT1080 cells were plated on a 6-well plate at 2×10^5 cells/2 mL/well 24 hr before, various sample MENDs were diluted with DMEM (FBS+) to a lipid concentration of 27.5 nmol/l mL/well and transfected into the well. After 1 hr, MEND-containing DMEM was removed, and the cells were washed twice with heparin (20 units/mL, 1 mL), and further once with PBS(−) (1 mL). 0.05% Trypsin solution (500 μL) was added, and the mixture was stood in an incubator at 37° C. for 3 min. […] The suspension was passed through a 44 μm nylon mesh immediately before the measurement, and the fluorescence intensity of intracellular NBD was measured.

[2] = tested on: HT1080 cells; assay: Intracellular kinetics (nuclear transport), confocal microscopy; conditions: 3 hr after transfection
Excerpt: For MEND preparation, Rhodamine-labeled pDNA prepared by the method of [Experimental Example 1] (4) was used. For preparation of MEND encapsulating the rhodamine-labeled pDNA, the pDNA solution described in [Experimental Example 1] (1) was completely replaced by rhodamine-labeled pDNA. In addition, the lipid constituting MEND was labeled with fluorescence by the method described in [Experimental Example 1] (3). MENDs having a composition of B-2-4 (Example 4):DOPE:Chol=3:3:4, B-2 (Example 1):SOPE:Chol=5:3:2 were prepared by the method described in [Experimental Example 1] (2). For the preparation, PEG2000-DMG was used as PEG lipid, and MEND solutions corresponding to 0.55 mM of the lipid concentration were prepared.
HT1080 cells were plated on a glass bottom dish at 5×10^4 cells/2 mL/dish 24 hr before. MEND was diluted with DMEM (FBS 10%+) to achieve pDNA 1.6 μg/2 mL and transfected into cells. After 3 hr, hoechst33342 (1 μL) was added and, 10 min later, the cells were washed twice with heparin solution (20 units/mL, 2 mL). Krebs buffer (1 mL) was added, and the image was obtained by a confocal laser scan microscope.

[3] = tested on: HT1080 cells; assay: Inhibitory effect of retinoic acid (RA) on gene expression; conditions: 0, 5, 7.5, 10 μM RA
Method: (§1) MENDs of B-2-4 (Example 4), B-2 (Example 1) were prepared according to [Experimental Example 1] (1), (2), [Experimental Example 18]. For the preparation, PEG2000-DMG was used as PEG lipid, and MEND solutions corresponding to 0.55 mM of the lipid concentration were prepared.
(§2) HT1080 cells were plated on a 3.5 cm cell culture dish at 4×10^4 cells/2 mL/dish 24 hr before, various MENDs were diluted with DMEM (FBS 10%+, Phenol red free) containing a final concentration 200 μM of D-luciferin potassium and 0, 5, 7.5, 10 μM RA (sigma) to achieve 1.6 μg/2 mL/dish based on the pDNA amount and transfection was performed. According to the Kronos Dio package insert, the luminescence amount was measured for 2 min every 20 min and taken as the luciferase activity (RLU/2 min).

[4] = tested on: HT1080 cells; assay: Time-course evaluation of gene expression using Kronos Dio (luciferase, RLU/2 min); conditions: pDNA 1.6 μg/2 mL/dish
Method: as §1, with “(2), and” for “(2),”, “prepared. For cationic MEND, lipids having a composition of DOTAP (Comparative Example 3):DOPE:Chol:=3:4:3 were used, and the cationic MEND was prepared according to the method described in [Experimental Example 1] (3).” for “prepared.”
as §2, with “(FES” for “(FBS”, “concentration of” for “concentration”, “potassium” for “potassium and 0, 5, 7.5, 10 μM RA (sigma)”

[5] = tested on: HT1080 cells; assay: Intracellular uptake pathway: influence of sucrose, amiloride, filipin on uptake amount; conditions: 0.3M sucrose, 1 mM amiloride, 3 hr
Method: as §1, with “prepared. pDNA was labeled with fluorescence according to the method described in [Experimental Example 15] (2).” for “prepared.”
HT1080 cells were plated on a 6-well plate at 2×10^5 cells/2 mL/well 24 hr before. The medium was changed to DMEM (FBS+) containing filipin at a final concentration of […] 30 min before transfection. The medium was changed to DMEM (FBS+) containing a final concentration of 0.3M sucrose, and 1 mM amiloride 15 min before transfection. For transfection, various MENDs were added to the dish at 1.6 μg/2 mL/dish based on the pDNA amount. 3 hr after the transfection, the intracellular pDNA amount was measured by the method described in [Experimental Example 19] (1).

SMILES	intracellular uptake amount of MEND [1]	intracellular localization [2]	gene expression activity in presence of RA [3]	gene expression activity (luciferase, RLU/2 min), time course [4]	intracellular uptake with sucrose, amiloride, filipin [5]
CCCCCCCC/C=C\CCCCCCCC(=O)OCC(CN(C)C)OC(=O)CCCCCCC/C=C\CCCCCCCC (stereo not shown) [DODAP, reference compound]	extremely low as compared to the MENDs using B-2-1 and DOTAP				
CC1=C(/C=C/C(C)=C/C=C/C(C)=C/C(=O)OCCCN(C)CCSSCCN(C)CCCOC(=O)/C=C(C)/C=C/C=C(C)/C=C/C2=C(C)CCCC2(C)C)C(C)(C)CCC1 [Example B-2-4]		accumulate near the nucleus	decreased by RA in a concentration dependent manner	significantly higher than that of MENDs formed from B-2-1 and DOTAP	sucrose- and amiloride-sensitive
CCCCCCCCCCCCCC(=O)OCCCN(C)CCSSCCN(C)CCCOC(=O)CCCCCCCCCCCCC [Example B-2]	extremely low as compared to the MENDs using B-2-1 and DOTAP	diffused in the cell	not decreased	equivalent to that of DOTAP	sucrose- and amiloride-sensitive
